Source: ChEMBL document CHEMBL1201862, “PubChem BioAssay data set” (2004)
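Five concentrations, 48 hours, 96-well plates. Here, GI50 denotes the concentration required for 50% inhibition of growth.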 The source made the active and inactive calls. Rule as the data show it: active = GI50 up to about 1.1 µM and inactive = higher.

Assays:
Assay in all cases: DTP human tumour cell line panel, 48 h
NCI-H226 = tested on: NCI-H226
SNB-19 = tested on: SNB-19
COLO 205 = tested on: COLO 205
CCRF-CEM = tested on: CCRF-CEM
MCF7 = tested on: MCF7
NCI/ADR-RES = tested on: NCI/ADR-RES
CAKI-1 = tested on: CAKI-1
M14 = tested on: M14
OVCAR-8 = tested on: OVCAR-8
HOP-92 = tested on: HOP-92
BT-549 = tested on: BT-549
U-251 = tested on: U-251
786-0 = tested on: 786-0
SNB-75 = tested on: SNB-75
A549 = tested on: A549
NCI-H522 = tested on: NCI-H522
SK-MEL-28 = tested on: SK-MEL-28
KM12 = tested on: KM12
OVCAR-3 = tested on: OVCAR-3
LOX IMVI = tested on: LOX IMVI

Measured: GI50

Cc1ccccc1C(=O)C#Cc1cn(C2CC(O)C(CO)O2)c(=O)[nH]c1=O (stereo unspecified)
inactive: NCI-H226 > 100 µM | SNB-19 > 100 µM | COLO 205 > 100 µM | CCRF-CEM 20.5 µM | MCF7 > 100 µM | NCI/ADR-RES > 100 µM | CAKI-1 > 100 µM | M14 > 100 µM | OVCAR-8 > 100 µM | HOP-92 74.1 µM | BT-549 > 100 µM | U-251 > 100 µM | 786-0 > 100 µM | SNB-75 > 100 µM | A549 > 100 µM | NCI-H522 14.7 µM | SK-MEL-28 > 100 µM | KM12 > 100 µM | OVCAR-3 > 100 µM

O=S1(=O)OCc2ccccc21
inactive: NCI-H226 97.5 µM | SNB-19 > 100 µM | COLO 205 > 100 µM | CCRF-CEM > 100 µM | MCF7 > 100 µM | NCI/ADR-RES > 100 µM | M14 > 100 µM | OVCAR-8 > 100 µM | HOP-92 > 100 µM | BT-549 > 100 µM | U-251 > 100 µM | 786-0 60.1 µM | SNB-75 42.8 µM | A549 > 100 µM | NCI-H522 79.8 µM | SK-MEL-28 > 100 µM | KM12 > 100 µM | OVCAR-3 32.5 µM

N#CC(CC(=O)O)=C(c1ccccc1)c1ccccc1
inactive: NCI-H226 > 100 µM | SNB-19 > 100 µM | COLO 205 > 100 µM | LOX IMVI > 100 µM | MCF7 > 100 µM | NCI/ADR-RES > 100 µM | CAKI-1 > 100 µM | M14 > 100 µM | OVCAR-8 > 100 µM | HOP-92 > 100 µM | BT-549 > 100 µM | U-251 > 100 µM | 786-0 > 100 µM | SNB-75 > 100 µM | A549 > 100 µM | NCI-H522 > 100 µM | SK-MEL-28 > 100 µM | KM12 > 100 µM | OVCAR-3 > 100 µM

CCOC(=O)CSc1nc(-c2ccc(OC)cc2)c(C#N)c(=O)[nH]1
inactive: NCI-H226 > 100 µM | SNB-19 > 100 µM | COLO 205 > 100 µM | CCRF-CEM > 100 µM | MCF7 > 100 µM | NCI/ADR-RES > 100 µM | CAKI-1 > 100 µM | M14 > 100 µM | OVCAR-8 > 100 µM | HOP-92 > 100 µM | BT-549 > 100 µM | U-251 > 100 µM | 786-0 > 100 µM | SNB-75 > 100 µM | A549 > 100 µM | NCI-H522 > 100 µM | SK-MEL-28 > 100 µM | KM12 > 100 µM | OVCAR-3 > 100 µM

CC(C)(C)OC(=O)NCC(=O)N1CCCN(C(=O)CNC(=O)OC(C)(C)C)CC1
inactive: NCI-H226 > 100 µM | SNB-19 > 100 µM | COLO 205 > 100 µM | LOX IMVI > 100 µM | MCF7 > 100 µM | NCI/ADR-RES > 100 µM | CAKI-1 > 100 µM | M14 > 100 µM | OVCAR-8 > 100 µM | HOP-92 > 100 µM | BT-549 > 100 µM | U-251 > 100 µM | 786-0 > 100 µM | SNB-75 > 100 µM | A549 > 100 µM | NCI-H522 > 100 µM | SK-MEL-28 > 100 µM | KM12 > 100 µM | OVCAR-3 > 100 µM

CO/N=C(\C)c1cccc(Nc2c3ccccc3nc3occc23)c1
inactive: NCI-H226 12 µM | SNB-19 17.5 µM | COLO 205 5.24 µM | LOX IMVI 10.4 µM | CCRF-CEM 5.42 µM | MCF7 6.47 µM | NCI/ADR-RES 4.12 µM | CAKI-1 4.82 µM | M14 8.97 µM | OVCAR-8 20 µM | HOP-92 14.3 µM | BT-549 18.1 µM | U-251 14.2 µM | 786-0 14.7 µM | A549 11.7 µM | NCI-H522 3.66 µM | SK-MEL-28 5.35 µM | KM12 8.81 µM | OVCAR-3 4.72 µM

COC(=O)C1=CO[C@@H](OC2OC(CO)C(O)C(O)C2O)[C@H]2[C@@H](C)[C@@H](O)[C@@H](O)[C@@H]12 (stereo partly specified)
inactive: NCI-H226 > 100 µM | COLO 205 > 100 µM | LOX IMVI > 100 µM | MCF7 > 100 µM | NCI/ADR-RES > 100 µM | CAKI-1 > 100 µM | M14 > 100 µM | OVCAR-8 > 100 µM | HOP-92 > 100 µM | BT-549 > 100 µM | U-251 > 100 µM | 786-0 > 100 µM | SNB-75 > 100 µM | A549 > 100 µM | NCI-H522 > 100 µM | SK-MEL-28 > 100 µM | KM12 > 100 µM | OVCAR-3 > 100 µM

COc1cc2c(cc1O)C(Cc1ccc(OCc3ccccc3)c(OCc3ccccc3)c1)N(C(=O)NCCc1ccccc1)CC2 (stereo unspecified)
inactive: NCI-H226 > 100 µM | SNB-19 > 100 µM | COLO 205 > 100 µM | LOX IMVI > 100 µM | CCRF-CEM 15 µM | MCF7 14.8 µM | NCI/ADR-RES > 100 µM | CAKI-1 > 100 µM | M14 > 100 µM | OVCAR-8 > 100 µM | HOP-92 > 100 µM | BT-549 > 100 µM | U-251 > 100 µM | 786-0 > 100 µM | SNB-75 > 100 µM | A549 20.8 µM | NCI-H522 2.88 µM | KM12 > 100 µM | OVCAR-3 > 100 µM

CC(C)(C)n1c(=O)n2c(-c3ccccc3)c(-c3ccccc3)n2c1=O
inactive: NCI-H226 > 100 µM | SNB-19 > 100 µM | COLO 205 > 100 µM | LOX IMVI 68.4 µM | MCF7 56.6 µM | NCI/ADR-RES > 100 µM | CAKI-1 > 100 µM | M14 37 µM | OVCAR-8 > 100 µM | HOP-92 > 100 µM | BT-549 53.7 µM | U-251 > 100 µM | 786-0 57.5 µM | SNB-75 > 100 µM | A549 56.9 µM | NCI-H522 17.5 µM | SK-MEL-28 > 100 µM | KM12 > 100 µM | OVCAR-3 > 100 µM

Nn1c(-c2ccccc2)nn(C(=O)c2ccccc2)c1=O
inactive: NCI-H226 > 100 µM | SNB-19 > 100 µM | COLO 205 > 100 µM | LOX IMVI > 100 µM | CCRF-CEM > 100 µM | MCF7 > 100 µM | NCI/ADR-RES > 100 µM | M14 > 100 µM | OVCAR-8 > 100 µM | HOP-92 > 100 µM | BT-549 > 100 µM | U-251 > 100 µM | 786-0 > 100 µM | SNB-75 > 100 µM | A549 > 100 µM | NCI-H522 > 100 µM | SK-MEL-28 > 100 µM | KM12 > 100 µM | OVCAR-3 > 100 µM

Cc1ccc(S(=O)(=O)C2=C(C(C)C)N=NC2(C)C)cc1
inactive: NCI-H226 61.8 µM | SNB-19 > 100 µM | LOX IMVI 88.9 µM | MCF7 62.7 µM | NCI/ADR-RES 64.7 µM | CAKI-1 26.7 µM | M14 > 100 µM | OVCAR-8 > 100 µM | HOP-92 14.3 µM | BT-549 48.8 µM | U-251 > 100 µM | 786-0 > 100 µM | SNB-75 95.3 µM | A549 81.3 µM | NCI-H522 36 µM | SK-MEL-28 > 100 µM | KM12 > 100 µM | OVCAR-3 > 100 µM

CC(=N/NC(=S)N1CCCCCC1)/C(C)=N\NC(=S)N1CCCCCC1
inactive: NCI-H226 3.42 µM | SNB-19 6.18 µM | COLO 205 5.43 µM | LOX IMVI > 10 µM | MCF7 4.7 µM | NCI/ADR-RES 5.25 µM | CAKI-1 4.91 µM | M14 5.25 µM | OVCAR-8 15.7 µM | HOP-92 1.32 µM | BT-549 5.27 µM | U-251 2.43 µM | 786-0 4.54 µM | SNB-75 5.09 µM | A549 5.3 µM | NCI-H522 4.14 µM | SK-MEL-28 1.88 µM | KM12 4.59 µM | OVCAR-3 5.6 µM

Clc1cccc(-c2sc(-c3cccs3)cc2Cc2cccs2)c1
inactive: NCI-H226 > 10 µM | SNB-19 > 10 µM | COLO 205 > 10 µM | LOX IMVI > 10 µM | CCRF-CEM > 10 µM | MCF7 3.71 µM | NCI/ADR-RES > 10 µM | CAKI-1 > 10 µM | M14 > 10 µM | OVCAR-8 > 10 µM | HOP-92 > 10 µM | BT-549 > 10 µM | 786-0 > 10 µM | SNB-75 > 10 µM | A549 > 10 µM | NCI-H522 > 10 µM | SK-MEL-28 > 10 µM | KM12 > 10 µM

C(=NCCN1CCOCC1)=NC1CCCCC1
inactive: NCI-H226 > 100 µM | SNB-19 > 100 µM | COLO 205 > 100 µM | LOX IMVI > 100 µM | MCF7 > 100 µM | NCI/ADR-RES > 100 µM | CAKI-1 > 100 µM | M14 > 100 µM | OVCAR-8 > 100 µM | HOP-92 > 100 µM | BT-549 > 100 µM | U-251 > 100 µM | 786-0 > 100 µM | SNB-75 > 100 µM | A549 > 100 µM | NCI-H522 > 100 µM | SK-MEL-28 > 100 µM | KM12 > 100 µM | OVCAR-3 > 100 µM

CCOC(=O)CCC(NC(=O)c1ccc(NCc2ccc3nc(OC)c(OC)nc3c2)c2ccccc12)C(=O)OCC (stereo unspecified)
inactive: NCI-H226 > 100 µM | SNB-19 76.2 µM | COLO 205 > 100 µM | LOX IMVI > 100 µM | MCF7 84.9 µM | NCI/ADR-RES > 100 µM | CAKI-1 > 100 µM | M14 > 100 µM | OVCAR-8 57.5 µM | HOP-92 16.2 µM | BT-549 > 100 µM | U-251 40.5 µM | 786-0 26.2 µM | SNB-75 38.8 µM | A549 > 100 µM | NCI-H522 > 100 µM | SK-MEL-28 > 100 µM | KM12 > 100 µM | OVCAR-3 94.2 µM
